# From paper PMC10945556, “Design, Synthesis, and Antifungal Activity of 3-Substituted-2(5H)-Oxaboroles” (ACS Medicinal Chemistry Letters, 2024)
# Test system: C. albicans
# Experiment: MIC, microbroth dilution
# Format: cell-based, Candida albicans
# Settings: Candida albicans
row,SMILES,MIC [µg/mL]
1,OB1OCC=C1c1ccc2occc2c1 [Compound 6r],> 50
2,OB1OCC=C1c1cccs1 [Compound 6s],> 50
3,Cc1ccc(C2=CCOB2O)cc1 [Compound 6t],> 50

# Same assay, conditions: Candida albicans, value in parentheses
row,SMILES,MIC [µM]
1,OB1OCC=C1c1ccc2occc2c1 [Compound 6r],> 250
2,OB1OCC=C1c1cccs1 [Compound 6s],> 301
3,Cc1ccc(C2=CCOB2O)cc1 [Compound 6t],> 287

# Test system: B. cereus
# Experiment: MIC, microbroth dilution
# Format: cell-based, Bacillus cereus
# Settings: Bacillus cereus
row,SMILES,MIC [µg/mL]
1,OB1OCC=C1c1ccc2occc2c1 [Compound 6r],> 50
2,OB1OCC=C1c1cccs1 [Compound 6s],> 50
3,Cc1ccc(C2=CCOB2O)cc1 [Compound 6t],> 50

# Same assay, conditions: Bacillus cereus, value in parentheses
row,SMILES,MIC [µM]
1,OB1OCC=C1c1ccc2occc2c1 [Compound 6r],> 250
2,OB1OCC=C1c1cccs1 [Compound 6s],> 301
3,Cc1ccc(C2=CCOB2O)cc1 [Compound 6t],> 287

# Test system: T. mentagrophytes
# Experiment: MIC, dose-dependent solid media assay
# Format: cell-based, Trichophyton mentagrophytes
# Settings: Trichophyton mentagrophytes
row,SMILES,MIC [µg/mL]
1,OB1OCC=C1c1ccc2occc2c1 [Compound 6r],50
2,OB1OCC=C1c1cccs1 [Compound 6s],> 50
3,Cc1ccc(C2=CCOB2O)cc1 [Compound 6t],> 50

# Same assay, conditions: Trichophyton mentagrophytes, value in parentheses
row,SMILES,MIC [µM]
1,OB1OCC=C1c1ccc2occc2c1 [Compound 6r],250
2,OB1OCC=C1c1cccs1 [Compound 6s],> 301
3,Cc1ccc(C2=CCOB2O)cc1 [Compound 6t],> 287

# Test system: A. flavus
# Experiment: MIC, dose-dependent solid media assay
# Format: cell-based, Aspergillus flavus
# Settings: Aspergillus flavus
row,SMILES,MIC [µg/mL]
1,OB1OCC=C1c1ccc2occc2c1 [Compound 6r],50
2,OB1OCC=C1c1cccs1 [Compound 6s],> 50
3,Cc1ccc(C2=CCOB2O)cc1 [Compound 6t],> 50

# Same assay, conditions: Aspergillus flavus, value in parentheses
row,SMILES,MIC [µM]
1,OB1OCC=C1c1ccc2occc2c1 [Compound 6r],250
2,OB1OCC=C1c1cccs1 [Compound 6s],> 301
3,Cc1ccc(C2=CCOB2O)cc1 [Compound 6t],> 287

# Test system: S. cerevisiae
# Experiment: MIC, microbroth dilution
# Format: cell-based, Saccharomyces cerevisiae
# Settings: Saccharomyces cerevisiae
row,SMILES,MIC [µg/mL]
1,OB1OCC=C1c1ccc2occc2c1 [Compound 6r],5.2 ± 1
2,OB1OCC=C1c1cccs1 [Compound 6s],10 ± 2
3,Cc1ccc(C2=CCOB2O)cc1 [Compound 6t],10.4 ± 2

# Same assay, conditions: Saccharomyces cerevisiae, value in parentheses
row,SMILES,MIC [µM]
1,OB1OCC=C1c1ccc2occc2c1 [Compound 6r],26
2,OB1OCC=C1c1cccs1 [Compound 6s],60.2
3,Cc1ccc(C2=CCOB2O)cc1 [Compound 6t],59.8

# Test system: P. aeruginosa
# Experiment: MIC, microbroth dilution
# Format: cell-based, Pseudomonas aeruginosa
# Settings: Pseudomonas aeruginosa
row,SMILES,MIC [µg/mL]
1,OB1OCC=C1c1ccc2occc2c1 [Compound 6r],> 50
2,OB1OCC=C1c1cccs1 [Compound 6s],> 50
3,Cc1ccc(C2=CCOB2O)cc1 [Compound 6t],> 50

# Same assay, conditions: Pseudomonas aeruginosa, value in parentheses
row,SMILES,MIC [µM]
1,OB1OCC=C1c1ccc2occc2c1 [Compound 6r],> 250
2,OB1OCC=C1c1cccs1 [Compound 6s],> 301
3,Cc1ccc(C2=CCOB2O)cc1 [Compound 6t],> 287

# Test system: Methicillin resistant Staphylococcus aureus
# Experiment: MIC, microbroth dilution
# Format: cell-based
# Settings: Staphylococcus aureus, S. aureus (MRSA)
row,SMILES,MIC [µg/mL]
1,OB1OCC=C1c1ccc2occc2c1 [Compound 6r],> 50
2,OB1OCC=C1c1cccs1 [Compound 6s],> 50
3,Cc1ccc(C2=CCOB2O)cc1 [Compound 6t],> 50

# Same assay, conditions: Staphylococcus aureus, S. aureus (MRSA), value in parentheses
row,SMILES,MIC [µM]
1,OB1OCC=C1c1ccc2occc2c1 [Compound 6r],> 250
2,OB1OCC=C1c1cccs1 [Compound 6s],> 301
3,Cc1ccc(C2=CCOB2O)cc1 [Compound 6t],> 287

# Test system: rat myoblast cells (H9c2)
# Experiment: Cell viability assay against H9c2 cell line
# Format: cell-based
# Settings: concentrations up to 100 μM, 24 h
# Method: (§1) In general, very little growth inhibition was observed against either Gram-positive or Gram-negative bacterial pathogens. […] The SAR for the antibacterial is dissimilar to that observed for the antifungal properties.
# (§2) Figure 3 (A) Cell viability assay against H9c2 cell line at 100 μM for 24 h (normalized to PBS no treatment), (B) Hemolytic assay at 50 and 100 μM for 1 h (normalized to triton X-100 positive control). Error bars in both graphs represent standard error of mean (SEM) of replicates (n = 3).
row,SMILES,cytotoxic effects against rat myoblast cells (H9c2)
1,OB1OCC=C1c1ccc2occc2c1 [Compound 6r],none
2,Cc1ccc(C2=CCOB2O)cc1 [Compound 6t],none

# Test system: E. coli
# Experiment: MIC, microbroth dilution
# Format: cell-based, Escherichia coli
# Settings: Escherichia coli
row,SMILES,MIC [µg/mL]
1,OB1OCC=C1c1ccc2occc2c1 [Compound 6r],> 50

# Same assay, conditions: Escherichia coli, value in parentheses
row,SMILES,MIC [µM]
1,OB1OCC=C1c1ccc2occc2c1 [Compound 6r],> 250
2,OB1OCC=C1c1cccs1 [Compound 6s],253
3,Cc1ccc(C2=CCOB2O)cc1 [Compound 6t],241

# Test system: E. coli
# Experiment: Growth inhibition screen in liquid medium
# Format: cell-based, Escherichia coli
# Settings: screen at 50 and 12.5 μg/mL
# Description: These included four bacterial pathogens [Bacillus cereus (Gram-positive), Methicillin resistant Staphylococcus aureus (Gram-positive), Pseudomonas aeruginosa (Gram-negative), and Escherichia coli (Gram-negative)], a fungal pathogen (Candida albicans), and a yeast (Saccharomyces cerevisiae). […] Commercially available tavaborole, cycloheximide, and nystatin were also screened as benchmarks. […] In addition, the 3-substituted oxaboroles were screened in a dose-dependent manner on solid media against three spore-forming fungal pathogens: Trichophyton mentagrophytes, Penicillium chrysogenum, and Aspergillus flavus (Figures 2B and S152–S192). The compounds could not be screened for growth inhibition in liquid media against these pathogens due to clumping of the mycelia, which impeded the absorbance readings.
row,SMILES,growth inhibition of E. coli
1,OB1OCC=C1c1cccs1 [Compound 6s],inhibited the growth
2,Cc1ccc(C2=CCOB2O)cc1 [Compound 6t],inhibited the growth

# Test system: not listed separately
# Experiment: Hemolytic assay
# Format: cell-based
# Settings: 50 and 100 μM for 1 h
# Method: as §1, §2
row,SMILES,hemolytic activity
1,OB1OCC=C1c1ccc2occc2c1 [Compound 6r],none possessed hemolytic activity
2,Cc1ccc(C2=CCOB2O)cc1 [Compound 6t],none possessed hemolytic activity

# Test system: P. chrysogenum
# Experiment: MIC, dose-dependent solid media assay
# Format: cell-based, Penicillium chrysogenum
# Settings: Penicillium chrysogenum
row,SMILES,MIC [µg/mL]
1,OB1OCC=C1c1ccc2occc2c1 [Compound 6r],25
2,OB1OCC=C1c1cccs1 [Compound 6s],50
3,Cc1ccc(C2=CCOB2O)cc1 [Compound 6t],21 ± 4

# Same assay, conditions: Penicillium chrysogenum, value in parentheses
row,SMILES,MIC [µM]
1,OB1OCC=C1c1ccc2occc2c1 [Compound 6r],125
2,OB1OCC=C1c1cccs1 [Compound 6s],301
3,Cc1ccc(C2=CCOB2O)cc1 [Compound 6t],121
